Results on 38 molecules are retold here after patent JP2005255641A, “ベンゾフラン誘導体” (Kyowa Hakko Kogyo Co Ltd, priority 2004, dated 2005).

The test has as its target T1, recombinant human PDE-IV (HSPDE4A) [組み換えヒトPDE−IV (HSPDE4A)] (Homo sapiens, UniProt P27815).
T1 construct: made in house; host or cells: Sf9 insect cells
The test can be described thus: Recombinant human PDE-IV enzyme inhibition test. It counts as biochemical. The note with it: read-out: enzyme inhibitory activity; for inhibition: drug concentration 1 μmol/L, [3H]cAMP 1 μmol/L, 30 °C, 10-30 min, DMSO 1.7%.

T1 sequence (P27815 whole entry): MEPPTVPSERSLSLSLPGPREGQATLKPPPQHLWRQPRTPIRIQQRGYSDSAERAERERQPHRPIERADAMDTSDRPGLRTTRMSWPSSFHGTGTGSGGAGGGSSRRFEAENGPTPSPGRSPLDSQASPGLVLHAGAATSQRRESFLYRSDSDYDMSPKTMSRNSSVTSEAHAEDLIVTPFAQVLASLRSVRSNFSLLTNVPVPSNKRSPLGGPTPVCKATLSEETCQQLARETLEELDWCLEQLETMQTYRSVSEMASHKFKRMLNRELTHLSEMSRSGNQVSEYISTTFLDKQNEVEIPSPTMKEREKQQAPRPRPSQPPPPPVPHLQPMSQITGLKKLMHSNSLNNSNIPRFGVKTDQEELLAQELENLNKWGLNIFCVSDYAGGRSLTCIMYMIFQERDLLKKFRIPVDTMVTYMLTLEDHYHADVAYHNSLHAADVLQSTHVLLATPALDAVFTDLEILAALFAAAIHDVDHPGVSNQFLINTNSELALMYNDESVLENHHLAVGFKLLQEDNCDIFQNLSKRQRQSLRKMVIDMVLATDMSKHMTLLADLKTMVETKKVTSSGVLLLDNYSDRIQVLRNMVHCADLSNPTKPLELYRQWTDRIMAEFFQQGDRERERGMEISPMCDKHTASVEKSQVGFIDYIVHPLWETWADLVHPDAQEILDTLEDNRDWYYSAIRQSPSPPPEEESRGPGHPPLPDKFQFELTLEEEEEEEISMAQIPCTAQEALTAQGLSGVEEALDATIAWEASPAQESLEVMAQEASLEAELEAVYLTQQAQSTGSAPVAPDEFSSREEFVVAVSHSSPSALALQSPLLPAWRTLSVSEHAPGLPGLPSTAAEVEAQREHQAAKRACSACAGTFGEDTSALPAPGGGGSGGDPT

As for `COc1ccc([C@]2(C#N)CC[C@@H](C(=O)O)CC2)c2cc(C(C)(C)O)oc12` [化合物110, シス−4−シアノ−4−(2−(1−ヒドロキシ−1−メチルエチル)−7−メトキシベンゾフラン−4−イル)シクロヘキサンカルボン酸], the inhibition is at least 50%. Regarding `COc1ccc(C2(C#N)CCN(CC(=O)O)CC2)c2c3c(oc12)CCCC3` [化合物100, 2−(4−シアノ−4−(6−メトキシ−1,2,3,4−テトラヒドロジベンゾフラン−9−イル)ピペリジン−1−イル)酢酸 塩酸塩], the inhibition at 1 µM is at least 50%. On the same count and under the same terms, with `COc1ccc(C2(C#N)CCN(CC(=O)O)CC2)c2cc(C3(C)CC3)oc12` [化合物87, 2−(4−シアノ−4−(7−メトキシ−2−(1−メチルシクロプロピル)ベンゾフラン−4−イル)ピペリジン−1−イル)酢酸 塩酸塩] the figure was at least 50%. Turning to `CCc1ccc([C@]2(C#N)CC[C@@H](C(=O)O)CC2)c2cc(C(=O)c3ccccc3)oc12` [化合物123, シス−4−(2−ベンゾイル−7−エチルベンゾフラン−4−イル)−4−シアノシクロヘキサンカルボン酸], the inhibition was at least 50%. Still for that read-out and setting: with `CCc1ccc([C@]2(C#N)CC[C@@H](C(=O)O)CC2)c2oc(C(=O)c3ccccc3)cc12` [化合物127, シス−4−(2−ベンゾイル−4−エチルベンゾフラン−7−イル)−4−シアノシクロヘキサンカルボン酸] the figure was at least 50%; with `CC1(c2cc3c(o2)c(OC(F)F)ccc3[C@]2(C#N)CC[C@@H](C(=O)O)CC2)CC1` [化合物107, シス−4−シアノ−4−(7−ジフルオロメトキシ−2−(1−メチルシクロプロピル)ベンゾフラン−4−イル)シクロヘキサンカルボン酸], at least 50%. Take `COc1ccc(C2(C#N)CCN(CC(=O)O)CC2)c2cc(C3(c4ccccc4)CC3)oc12` [化合物88, 2−(4−シアノ−4−(7−メトキシ−2−(1−フェニルシクロプロピル)ベンゾフラン−4−イル)ピペリジン−1−イル)酢酸 塩酸塩]: the inhibition at 1 µM was at least 50%. Still for that read-out and setting: with `COc1ccc(C2(C#N)CCN(CC(=O)O)CC2)c2cc(Cc3ccccc3)oc12` [化合物81, 2−(4−(2−ベンジル−7−メトキシベンゾフラン−4−イル)−4−シアノピペリジン−1−イル)酢酸 塩酸塩] the figure was at least 50%; with `COc1ccc(C2(C#N)CCN(CC(=O)O)CC2)c2cc(C(C)C)oc12` [化合物77, 2−(4−シアノ−4−(2−イソプロピル−7−メトキシベンゾフラン−4−イル)ピペリジン−1−イル)酢酸 塩酸塩], at least 50%. Regarding `COc1ccc([C@]2(C#N)CC[C@@H](C(=O)O)CC2)c2cc(C(=O)c3cc[n+]([O-])cc3)oc12` [化合物113, シス−4−シアノ−4−(2−(イソニコチノイル−1−オキシド)−7−メトキシベンゾフラン−4−イル)シクロヘキサンカルボン酸, 0.2H2O], the inhibition was at least 50%. On to `COc1ccc(C2(C#N)CCN(CC(=O)O)CC2)c2cc(C3CC3C)oc12` (centres unmarked) [化合物84, 2−(4−シアノ−4−(7−メトキシ−2−(2−メチルシクロプロピル)ベンゾフラン−4−イル)ピペリジン−1−イル)酢酸 塩酸塩], for which the inhibition at 1 µM is at least 50%.

Regarding `COc1ccc(C2(C#N)CCN(CC(=O)O)CC2)c2cc(C(C)(C)C)oc12` [化合物78, 2−(4−(2−tert−ブチル−7−メトキシベンゾフラン−4−イル)−4−シアノピペリジン−1−イル)酢酸 塩酸塩], the inhibition at 1 µM was at least 50%.

For the molecule `COc1ccc(C2(C#N)CCN(CC(=O)O)CC2)c2cc(C3CC3)oc12` [化合物83, 2−(4−シアノ−4−(2−シクロプロピル−7−メトキシベンゾフラン−4−イル)ピペリジン−1−イル)酢酸 塩酸塩], the inhibition at 1 µM was at least 50%. As for `COc1ccc(C2(C#N)CCN(CC(=O)O)CC2)c2cc(C(=O)C(C)C)oc12` [化合物91, 2−(4−シアノ−4−(2−イソブチリル−7−メトキシベンゾフラン−4−イル)ピペリジン−1−イル)酢酸], the inhibition was at least 50%. Same read-out and setting: for `C=Cc1ccc([C@]2(C#N)CC[C@@H](C(=O)O)CC2)c2oc(C(=O)c3ccccc3)cc12` [化合物126, シス−4−(2−ベンゾイル−4−ビニルベンゾフラン−7−イル)−4−シアノシクロヘキサンカルボン酸] the value was at least 50%; for `COc1ccc([C@]2(C#N)CC[C@@H](C(=O)O)CC2)c2cc(C#N)oc12` [化合物121, シス−4−シアノ−4−(2−シアノ−7−メトキシベンゾフラン−4−イル)シクロヘキサンカルボン酸], at least 50%; for `COc1ccc([C@]2(C#N)CC[C@@H](C(=O)O)CC2)c2cc(C(=O)N3CCN(C)CC3)oc12` [化合物114, シス−4−シアノ−4−(7−メトキシ−2−(4−メチルピペラジン−1−イルカルボニル)ベンゾフラン−4−イル)シクロヘキサンカルボン酸 塩酸塩], at least 50%.

With `COc1ccc(C2(C#N)CCN(CC(=O)O)CC2)c2cc(C#N)oc12` [化合物99, 2−(4−シアノ−4−(2−シアノ−7−メトキシベンゾフラン−4−イル)ピペリジン−1−イル)酢酸], the inhibition was at least 50%. As for `C=Cc1ccc([C@]2(C#N)CC[C@@H](C(=O)O)CC2)c2cc(C(=O)c3ccccc3)oc12` [化合物122, シス−4−(2−ベンゾイル−7−ビニルベンゾフラン−4−イル)−4−シアノシクロヘキサンカルボン酸, 0.4H2O], the inhibition was at least 50%. `COC(=O)c1cc2c(C3(C#N)CCN(CC(=O)O)CC3)ccc(OC)c2o1` [化合物93, 2−(4−シアノ−4−(7−メトキシ−2−メトキシカルボニルベンゾフラン−4−イル)ピペリジン−1−イル)酢酸]: the inhibition is at least 50%. The same measure, in the same setting: with `CCc1cc2c(C3(C#N)CCN(CC(=O)O)CC3)ccc(OC)c2o1` [化合物76, 2−(4−シアノ−4−(2−エチル−7−メトキシベンゾフラン−4−イル)ピペリジン−1−イル)酢酸, 0.3H2O] the figure was at least 50%.

Consider `COc1ccc([C@]2(C#N)CC[C@@H](C(=O)O)CC2)c2cc(C3(C)CC3)oc12` [化合物103, シス−4−シアノ−4−(7−メトキシ−2−(1−メチルシクロプロピル)ベンゾフラン−4−イル)シクロヘキサンカルボン酸], for which the inhibition is at least 50%.

In the case of `COc1ccc([C@]2(C#N)CC[C@@H](C(=O)O)CC2)c2cc(C(C)O)oc12` (some centres unmarked) [化合物108, シス−4−シアノ−4−(2−(1−ヒドロキシエチル)−7−メトキシベンゾフラン−4−イル)シクロヘキサンカルボン酸], the inhibition was at least 50%. For the molecule `COc1ccc(C2(C#N)CCN(CC(=O)O)CC2)c2cc(C(C)=O)oc12` [化合物90, 2−(4−(2−アセチル−7−メトキシベンゾフラン−4−イル)−4−シアノピペリジン−1−イル)酢酸], the inhibition was at least 50%. In the case of `COc1ccc(C2(C#N)CCN(CC(=O)O)CC2)c2cc(C3CCC3)oc12` [化合物82, 2−(4−シアノ−4−(2−シクロブチル−7−メトキシベンゾフラン−4−イル)ピペリジン−1−イル)酢酸 塩酸塩], the inhibition at 1 µM is at least 50%. Still for that read-out and setting: with `COc1ccc(C2(C#N)CCN(CC(=O)O)CC2)c2cc(CC(C)C)oc12` [化合物79, 2−(4−シアノ−4−(2−イソブチル−7−メトキシベンゾフラン−4−イル)ピペリジン−1−イル)酢酸 塩酸塩] the figure was at least 50%.

For `COc1ccc([C@]2(C#N)CC[C@@H](C(=O)O)CC2)c2cc(C(C)=O)oc12` [化合物109, シス−4−(2−アセチル−7−メトキシベンゾフラン−4−イル)−4−シアノシクロヘキサンカルボン酸], the inhibition is at least 50%. The same measure, in the same setting: with `COc1ccc([C@]2(C#N)CC[C@@H](C(=O)O)CC2)c2cc(C(=O)c3ccncc3)oc12` [化合物112, シス−4−シアノ−4−(2−イソニコチノイル−7−メトキシベンゾフラン−4−イル)シクロヘキサンカルボン酸] the figure was at least 50%; with `N#C[C@]1(c2ccc(OC(F)F)c3oc(C4CC4)cc32)CC[C@H](C(=O)O)CC1` [化合物106, シス−4−シアノ−4−(2−シクロプロピル−7−ジフルオロメトキシベンゾフラン−4−イル)シクロヘキサンカルボン酸, 0.2H2O], at least 50%.

As for `COc1ccc(C2(C#N)CCN(CC(=O)O)CC2)c2cc(CC(C)(C)C)oc12` [化合物80, 2−(4−(7−メトキシ−2−ネオペンチルベンゾフラン−4−イル)−4−シアノピペリジン−1−イル)酢酸 塩酸塩], the inhibition at 1 µM was at least 50%. As for `COc1ccc([C@]2(C#N)CC[C@@H](C(=O)O)CC2)c2oc(C(=O)c3ccccc3)cc12` [化合物124, シス−4−(2−ベンゾイル−4−メトキシベンゾフラン−7−イル)−4−シアノシクロヘキサンカルボン酸], the inhibition was at least 50%. With `COc1ccc([C@]2(C#N)CC[C@@H](C(=O)O)CC2)c2cc(C(=O)N3CCC(N4CCCC4)CC3)oc12` [化合物116, シス−4−シアノ−4−(7−メトキシ−2−(4−(ピロリジン−1−イル)ピペリジノカルボニル)ベンゾフラン−4−イル)シクロヘキサンカルボン酸 塩酸塩], the inhibition is at least 50%. Same read-out and setting: for `COc1ccc([C@]2(C#N)CC[C@@H](C(=O)O)CC2)c2cc(C(=O)N3CCN(CCO)CC3)oc12` [化合物115, シス−4−シアノ−4−(2−(4−(2−ヒドロキシエチル)ピペラジン−1−イルカルボニル)−7−メトキシベンゾフラン−4−イル)シクロヘキサンカルボン酸 塩酸塩] the value was at least 50%; for `COc1ccc(C2(C#N)CCN(CC(=O)O)CC2)c2cc(C(=O)c3ccccc3)oc12` [化合物92, 2−(4−(2−ベンゾイル−7−メトキシベンゾフラン−4−イル)−4−シアノピペリジン−1−イル)酢酸], at least 50%. Turning to `COc1ccc([C@]2(C#N)CC[C@@H](C(=O)O)CC2)c2cc(C(=O)c3ccccc3)oc12` [化合物111, シス−4−(2−ベンゾイル−7−メトキシベンゾフラン−4−イル)−4−シアノシクロヘキサンカルボン酸], the inhibition is at least 50%. For `COc1ccc([C@]2(C#N)CC[C@@H](C(=O)O)CC2)c2cc(C3(C(F)(F)F)CC3)oc12` [化合物104, シス−4−シアノ−4−(7−メトキシ−2−(1−トリフルオロメチルシクロプロピル)ベンゾフラン−4−イル)シクロヘキサンカルボン酸], the inhibition was at least 50%. The same measure, in the same setting: for `CCc1cc2c(o1)c(OC)ccc2[C@]1(C#N)CC[C@@H](C(=O)O)CC1` [化合物101, シス−4−シアノ−4−(2−エチル−7−メトキシベンゾフラン−4−イル)シクロヘキサンカルボン酸] the value was at least 50%.

On to `N#CC1(c2ccc(OC(F)F)c3oc(C4CC4)cc23)CCN(CC(=O)O)CC1` [化合物89, 2−(4−シアノ−4−(2−シクロプロピル−7−ジフルオロメトキシベンゾフラン−4−イル)ピペリジン−1−イル)酢酸 塩酸塩], for which the inhibition at 1 µM was at least 50%.
